In the supplement of paper PMC10883282:

Columns and labels:
Test in all cases: relative viability vs DMSO control (72 h) (fraction); higher = more viable cells
KHOS-240S = system: KHOS-240S
In short: (§1)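 Plates held 72 h at 37 °C and 5% CO2 contained sarcoma cell lines seeded in 384-well format to reach 80–90% confluence, plus 2.5 µl of serially diluted compound added after 24 h. Source plate concentrations ran from 10 mM to 0.0002 mM, with 0.1% DMSO as vehicle and a 5 µM positive control. Percent growth from ATPLite readings, averaged over up to triplicate wells, gave relative viability. Values were rescaled with 1 as full and 0 as none.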

RD = system: RD
In short: as §1

SYO-1 = system: SYO-1
In short: as §1

MES-SA = system: MES-SA
In short: as §1

SW1353 = system: SW1353
In short: as §1

SW982 = system: SW982
In short: as §1

VA-ES-BJ = system: VA-ES-BJ
In short: as §1

HT1080 = system: HT1080
In short: as §1

SK-LMS-1 = system: SK-LMS-1
In short: as §1

RD-ES = system: RD-ES
In short: as §1

G401 = system: G401
In short: as §1

SK-ES-1 = system: SK-ES-1
In short: as §1

CO[C@H]1C[C@@H]2CC[C@@H](C)[C@@](O)(O2)C(=O)C(=O)N2CCCC[C@H]2C(=O)O[C@H]([C@H](C)C[C@@H]2CC[C@@H](O)[C@H](OC)C2)CC(=O)[C@H](C)/C=C(\C)[C@@H](O)[C@@H](OC)C(=O)[C@H](C)C[C@H](C)/C=C/C=C/C=C/1C [Rapamycin]
Conditions | relative viability
G401, 0.00017 µM | 0.901
G401, 0.00051 µM | 0.856
G401, 0.00152 µM | 0.815
G401, 0.00457 µM | 0.784
G401, 0.01372 µM | 0.759
G401, 0.04115 µM | 0.717
G401, 0.1235 µM | 0.687
G401, 0.3704 µM | 0.676
G401, 1.111 µM | 0.634
G401, 3.333 µM | 0.613
G401, 10 µM | 0.589
HT1080, 0.00017 µM | 1.04
HT1080, 0.00051 µM | 1.03
HT1080, 0.00152 µM | 1.02
HT1080, 0.00457 µM | 0.97
HT1080, 0.01372 µM | 0.966
HT1080, 0.04115 µM | 0.972
HT1080, 0.1235 µM | 0.932
HT1080, 0.3704 µM | 0.917
HT1080, 1.111 µM | 0.905
HT1080, 3.333 µM | 0.869
HT1080, 10 µM | 0.851
KHOS-240S, 0.00017 µM | 0.9934
KHOS-240S, 0.00051 µM | 0.975
KHOS-240S, 0.00152 µM | 0.942
KHOS-240S, 0.00457 µM | 0.858
KHOS-240S, 0.01372 µM | 0.809
KHOS-240S, 0.04115 µM | 0.775
KHOS-240S, 0.1235 µM | 0.766
KHOS-240S, 0.3704 µM | 0.746
KHOS-240S, 1.111 µM | 0.734
KHOS-240S, 3.333 µM | 0.7183
KHOS-240S, 10 µM | 0.688
MES-SA, 0.00017 µM | 0.876
MES-SA, 0.00051 µM | 0.648
MES-SA, 0.00152 µM | 0.469
MES-SA, 0.00457 µM | 0.424
MES-SA, 0.01372 µM | 0.384
MES-SA, 0.04115 µM | 0.362
MES-SA, 0.1235 µM | 0.363
MES-SA, 0.3704 µM | 0.353
MES-SA, 1.111 µM | 0.352
MES-SA, 3.333 µM | 0.34
MES-SA, 10 µM | 0.349
RD, 0.00017 µM | 0.95
RD, 0.00051 µM | 0.87
RD, 0.00152 µM | 0.808
RD, 0.00457 µM | 0.702
RD, 0.01372 µM | 0.629
RD, 0.04115 µM | 0.579
RD, 0.1235 µM | 0.592
RD, 0.3704 µM | 0.573
RD, 1.111 µM | 0.588
RD, 3.333 µM | 0.605
RD, 10 µM | 0.568
RD-ES, 0.00017 µM | 0.966
RD-ES, 0.00051 µM | 0.962
RD-ES, 0.00152 µM | 0.868
RD-ES, 0.00457 µM | 0.833
RD-ES, 0.01372 µM | 0.77
RD-ES, 0.04115 µM | 0.712
RD-ES, 0.1235 µM | 0.665
RD-ES, 0.3704 µM | 0.677
RD-ES, 1.111 µM | 0.687
RD-ES, 3.333 µM | 0.647
RD-ES, 10 µM | 0.611
SK-ES-1, 0.00017 µM | 0.953
SK-ES-1, 0.00051 µM | 0.866
SK-ES-1, 0.00152 µM | 0.737
SK-ES-1, 0.00457 µM | 0.63
SK-ES-1, 0.01372 µM | 0.564
SK-ES-1, 0.04115 µM | 0.554
SK-ES-1, 0.1235 µM | 0.51
SK-ES-1, 0.3704 µM | 0.512
SK-ES-1, 1.111 µM | 0.5
SK-ES-1, 3.333 µM | 0.482
SK-ES-1, 10 µM | 0.457
SK-LMS-1, 0.00017 µM | 0.924
SK-LMS-1, 0.00051 µM | 0.758
SK-LMS-1, 0.00152 µM | 0.697
SK-LMS-1, 0.00457 µM | 0.621
SK-LMS-1, 0.01372 µM | 0.58
SK-LMS-1, 0.04115 µM | 0.567
SK-LMS-1, 0.1235 µM | 0.551
SK-LMS-1, 0.3704 µM | 0.526
SK-LMS-1, 1.111 µM | 0.554
SK-LMS-1, 3.333 µM | 0.522
SK-LMS-1, 10 µM | 0.5
SW982, 0.00017 µM | 0.919
SW982, 0.00051 µM | 0.86
SW982, 0.00152 µM | 0.763
SW982, 0.00457 µM | 0.695
SW982, 0.01372 µM | 0.634
SW982, 0.04115 µM | 0.597
SW982, 0.1235 µM | 0.567
SW982, 0.3704 µM | 0.603
SW982, 1.111 µM | 0.586
SW982, 3.333 µM | 0.597
SW982, 10 µM | 0.591
SW1353, 0.00017 µM | 0.91
SW1353, 0.00051 µM | 0.851
SW1353, 0.00152 µM | 0.825
SW1353, 0.00457 µM | 0.796
SW1353, 0.01372 µM | 0.795
SW1353, 0.04115 µM | 0.782
SW1353, 0.1235 µM | 0.747
SW1353, 0.3704 µM | 0.714
SW1353, 1.111 µM | 0.7
SW1353, 3.333 µM | 0.674
SW1353, 10 µM | 0.683
SYO-1, 0.00017 µM | 0.954
SYO-1, 0.00051 µM | 0.893
SYO-1, 0.00152 µM | 0.875
SYO-1, 0.00457 µM | 0.836
SYO-1, 0.01372 µM | 0.826
SYO-1, 0.04115 µM | 0.792
SYO-1, 0.1235 µM | 0.767
SYO-1, 0.3704 µM | 0.734
SYO-1, 1.111 µM | 0.706
SYO-1, 3.333 µM | 0.683
SYO-1, 10 µM | 0.66
VA-ES-BJ, 0.00017 µM | 0.942
VA-ES-BJ, 0.00051 µM | 0.814
VA-ES-BJ, 0.00152 µM | 0.723
VA-ES-BJ, 0.00457 µM | 0.584
VA-ES-BJ, 0.01372 µM | 0.476
VA-ES-BJ, 0.04115 µM | 0.451
VA-ES-BJ, 0.1235 µM | 0.435
VA-ES-BJ, 0.3704 µM | 0.427
VA-ES-BJ, 1.111 µM | 0.444
VA-ES-BJ, 3.333 µM | 0.446
VA-ES-BJ, 10 µM | 0.43
